According to ChEMBL document CHEMBL1129883, “Synthesis and cytotoxicity of 5-deazaflavins containing o- and p-quinone moieties” (Bioorg Med Chem Lett, 1997):
pIC50: −log10 of the molar value.

How the values were obtained:
KB = assay: In vitro cytotoxicity determined against human epidermoid carcinoma KB cells by MTT assay; assay type: functional, cell-based
L1210 = assay: In vitro cytotoxicity determined against murine leukemia L1210 cells by MTT assay; assay type: functional, cell-based; settings: Mus musculus

Compound	pIC50 (KB)	pIC50 (L1210)
CCCCn1c2nc(=O)n(C)c(=O)c-2cc2c1C(=O)C(OC)=CC2=O	6.05	5.92
CCCCCCCCCCCCn1c2nc(=O)n(-c3ccccc3)c(=O)c-2cc2c1C(=O)C(=O)c1ccccc1-2	4.75	5.55
CCCCn1c2nc(=O)n(C)c(=O)c-2cc2c1C(=O)C(=O)c1ccccc1-2	6.70	6.40
CCCCCCCCn1c2nc(=O)n(C)c(=O)c-2cc2c1C(=O)C(OC)=CC2=O	5.24	6.40
CCCCCCCCn1c2nc(=O)n(C)c(=O)c-2cc2c1C(=O)C(=O)c1ccccc1-2	5.77	6.40
CCCCCCCCCCCCn1c2nc(=O)n(C)c(=O)c-2cc2c1C(=O)C(=O)c1ccccc1-2	6.70	6.52
CCCCCCCCn1c2nc(=O)[nH]c(=O)c-2cc2c1C(=O)C(=O)c1ccccc1-2	5.49	5.38
CCCCCCCCn1c2nc(=O)n(-c3ccccc3)c(=O)c-2cc2c1C(=O)C(OC)=CC2=O	6.00	5.74
CCCCCCCCCCCCn1c2nc(=O)n(C)c(=O)c-2cc2c1C(=O)C(OC)=CC2=O	5.74	7.00
CCCCCCCCn1c2nc(=O)[nH]c(=O)c-2cc2c1C(=O)C(OC)=CC2=O	5.82	5.36
CCCCCCCCCCCCn1c2nc(=O)[nH]c(=O)c-2cc2c1C(=O)C(=O)c1ccccc1-2	5.16	5.52
CCCCCCn1c2nc(=O)n(C)c(=O)c-2cc2c1C(=O)C(OC)=CC2=O	6.22	6.30
CCCCCCn1c2nc(=O)[nH]c(=O)c-2cc2c1C(=O)C(OC)=CC2=O	5.35	5.32
CCCCCCCCn1c2nc(=O)n(-c3ccccc3)c(=O)c-2cc2c1C(=O)C(=O)c1ccccc1-2	4.64	5.51
CCCn1c2nc(=O)n(C)c(=O)c-2cc2c1C(=O)C(=O)c1ccccc1-2	5.92	6.15
CCCCCCn1c2nc(=O)n(C)c(=O)c-2cc2c1C(=O)C(=O)c1ccccc1-2	6.10	7.00
CCCCn1c2nc(=O)n(-c3ccccc3)c(=O)c-2cc2c1C(=O)C(=O)c1ccccc1-2	4.55	5.31
CCn1c2nc(=O)n(C)c(=O)c-2cc2c3ccccc3cc(OC)c21	< 4.30	< 4.30
CCCCn1c2nc(=O)[nH]c(=O)c-2cc2c1C(=O)C(=O)c1ccccc1-2	5.28	5.68
CCCCCCn1c2nc(=O)n(-c3ccccc3)c(=O)c-2cc2c1C(=O)C(OC)=CC2=O	6.40	5.89
CCn1c2nc(=O)n(C)c(=O)c-2cc2c1C(=O)C(=O)c1ccccc1-2	6.52	7.00
CCCCCCCCCCCCn1c2nc(=O)n(-c3ccccc3)c(=O)c-2cc2c1C(=O)C(OC)=CC2=O	6.52	5.57
CCCCCCCCCCCCn1c2nc(=O)[nH]c(=O)c-2cc2c1C(=O)C(OC)=CC2=O	4.90	5.60
CCCCCCCCCCCCn1c2nc(=O)n(C)c(=O)c-2cc2ccccc21	< 4.30	< 4.30
